Bounds are passed on as bounds.

The target of this assay is T1, human CGT (ceramide galactosyltransferase), CHO/CGT lysate (Homo sapiens, UniProt Q16880).
T1 construct: Full-length human CGT cDNA was cloned into the BamH1/Xho1 site of pcDNA3.1 (+); expressed in transfected cells; host or cells: Chinese hamster ovary (CHO) cells; lysate prepared with M-PER
T1 sequence (Q16880 21-541): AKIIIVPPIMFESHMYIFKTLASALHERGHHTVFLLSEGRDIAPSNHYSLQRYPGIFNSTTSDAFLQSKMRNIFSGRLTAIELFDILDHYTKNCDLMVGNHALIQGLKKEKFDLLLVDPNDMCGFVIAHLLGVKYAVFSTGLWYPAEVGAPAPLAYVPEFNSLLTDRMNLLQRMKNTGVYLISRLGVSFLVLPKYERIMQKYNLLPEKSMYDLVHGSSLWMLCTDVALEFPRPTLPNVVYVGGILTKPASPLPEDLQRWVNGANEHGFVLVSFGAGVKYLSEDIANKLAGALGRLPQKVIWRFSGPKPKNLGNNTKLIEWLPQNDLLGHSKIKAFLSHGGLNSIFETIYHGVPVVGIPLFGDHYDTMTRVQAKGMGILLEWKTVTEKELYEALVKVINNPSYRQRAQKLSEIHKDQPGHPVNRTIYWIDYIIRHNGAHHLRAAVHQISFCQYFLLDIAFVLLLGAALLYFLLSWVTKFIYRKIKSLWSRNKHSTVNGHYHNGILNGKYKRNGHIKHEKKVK
As to the kind of experiment: CGT enzyme assay, RapidFire/MS/MS readout with 0.01% Tween added (Table 1 ranges with two asterisks **). The class given is biochemical. The settings on record: CGT enzymatic assay; range with two asterisks (**): RapidFire/MS/MS method with 0.01% Tween added. A digest of the protocol:
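Lysate (4 μg) of CHO cells transfected with full-length human CGT incubated 1 h at 37 °C with compound (0.001–50 μM) in pH 7.2 HEPES buffer with 10 μM C6-NBD-dihydro-ceramide, 17.5 μM UDP-galactose, Mg2+/Mn2+, CHAPS, BSA, 0.5% DMSO; ** set also contained 0.01% Tween 80. Product quantified by RapidFire/MS/MS, normalized to internal standard; IC50 from sigmoidal variable-slope fits.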
On to `NC1CCN(C(=O)[C@H](N(CC(F)(F)F)S(=O)(=O)c2ccc3cc(OC4CCCC4)ccc3c2)C(F)(F)c2ccc(Br)cc2)CC1` [Compound 187-2, (S)-N-(3-(4-aminopiperidin-1-yl)-1-(4-bromophenyl)-1,1-difluoro-3-oxopropan-2-yl)-6-(cyclopentyloxy)-N-(2,2,2-trifluoroethyl)naphthalene-2-sulfonamide], for which the IC50 (as a rule, the point on the concentration scale where inhibition reaches its midpoint) was in the range of 30 to 100 µM.

For `O=C([C@@H](NS(=O)(=O)c1ccc2cc(OC3CCCC3)ccc2c1)C(F)(F)c1ccc(-c2ccc(Cl)cc2)cc1)N1CCNC2(CC2)C1` [Compound 188-1, (R)-N-(1-(4′-chloro-[1,1′-biphenyl]-4-yl)-1,1-difluoro-3-oxo-3-(4,7-diazaspiro[2.5]octan-7-yl)propan-2-yl)-6-(cyclopentyloxy)naphthalene-2-sulfonamide], the IC50 was 1 to 10 µM.

Turning to `O=C([C@H](NS(=O)(=O)c1ccc2cc(OC3CCCC3)ccc2c1)C(F)(F)c1ccc(-c2ccc(Cl)cc2)cc1)N1CCNC2(CC2)C1` [Compound 188-2, (S)-N-(1-(4′-chloro-[1,1′-biphenyl]-4-yl)-1,1-difluoro-3-oxo-3-(4,7-diazaspiro[2.5]octan-7-yl)propan-2-yl)-6-(cyclopentyloxy)naphthalene-2-sulfonamide], the IC50 lay in the range of 30 to 100 µM.

In the case of `N[C@@H]1CCN(C(=O)[C@@H](NS(=O)(=O)c2ccc(OCC3CCCCC3)cc2)C(F)(F)c2ccc(Cl)cc2)C1` [Compound 189-1, N-((R)-3-((R)-3-aminopyrrolidin-1-yl)-1-(4-chlorophenyl)-1,1-difluoro-3-oxopropan-2-yl)-4-(cyclohexylmethoxy)benzenesulfonamide], the IC50 was in the range of 1 to 10 µM.

For `N[C@@H]1CCN(C(=O)[C@H](NS(=O)(=O)c2ccc(OCC3CCCCC3)cc2)C(F)(F)c2ccc(Cl)cc2)C1` [Compound 189-2, N-((S)-3-((R)-3-aminopyrrolidin-1-yl)-1-(4-chlorophenyl)-1,1-difluoro-3-oxopropan-2-yl)-4-(cyclohexylmethoxy)benzenesulfonamide], the IC50 fell in the range of 10 to 30 µM.

`COc1cc(C(F)(F)[C@H](NS(=O)(=O)c2ccc(OCC3CCCCC3)cc2)C(=O)N2C[C@H]3CNC[C@H]3C2)ccc1-c1ccc(Cl)cc1` [Compound 190-1, N-((R)-1-(4′-chloro-2-methoxy-[1,1′-biphenyl]-4-yl)-1,1-difluoro-3-((3aR,6aS)-hexahydropyrrolo[3,4-c]pyrrol-2(1H)-yl)-3-oxopropan-2-yl)-4-(cyclohexylmethoxy)benzenesulfonamide] yielded an IC50 of 1 to 10 µM.

Take `COc1cc(C(F)(F)[C@@H](NS(=O)(=O)c2ccc(OCC3CCCCC3)cc2)C(=O)N2C[C@H]3CNC[C@H]3C2)ccc1-c1ccc(Cl)cc1` [Compound 190-2, N-((S)-1-(4′-chloro-2-methoxy-[1,1′-biphenyl]-4-yl)-1,1-difluoro-3-((3aR,6aS)-hexahydropyrrolo[3,4-c]pyrrol-2(1H)-yl)-3-oxopropan-2-yl)-4-(cyclohexylmethoxy)benzenesulfonamide]: the IC50 lay in the range of 30 to 100 µM.

As to `O=C([C@@H](NS(=O)(=O)c1ccc2cc(OC3CCCC3)ccc2c1)C(F)(F)c1ccc(-c2ccc(Cl)cc2)cc1)N1CCC12CNC2` [Compound 191-1, (R)-N-(1-(4′-chloro-[1,1′-biphenyl]-4-yl)-1,1-difluoro-3-oxo-3-(1,6-diazaspiro[3.3]heptan-1-yl)propan-2-yl)-6-(cyclopentyloxy)naphthalene-2-sulfonamide], the IC50 is under 1 µM.

The molecule `O=C([C@H](NS(=O)(=O)c1ccc2cc(OC3CCCC3)ccc2c1)C(F)(F)c1ccc(-c2ccc(Cl)cc2)cc1)N1CCC12CNC2` [Compound 191-2, (S)-N-(1-(4′-chloro-[1,1′-biphenyl]-4-yl)-1,1-difluoro-3-oxo-3-(1,6-diazaspiro[3.3]heptan-1-yl)propan-2-yl)-6-(cyclopentyloxy)naphthalene-2-sulfonamide] registered an IC50 of 1 to 10 µM.

For `O=C([C@@H](NS(=O)(=O)c1ccc2cc(OC3CCCC3)ccc2c1)C(F)(F)c1ccc(-c2ccc(Cl)cc2)cc1)N1CC[C@H]2CNC[C@H]21` [Compound 192-1, N-((R)-1-(4′-chloro-[1,1′-biphenyl]-4-yl)-1,1-difluoro-3-((3aS,6aS)-hexahydropyrrolo[3,4-b]pyrrol-1(2H)-yl)-3-oxopropan-2-yl)-6-(cyclopentyloxy)naphthalene-2-sulfonamide], the IC50 fell in the range of 1 to 10 µM.

Regarding `O=C([C@H](NS(=O)(=O)c1ccc2cc(OC3CCCC3)ccc2c1)C(F)(F)c1ccc(-c2ccc(Cl)cc2)cc1)N1CC[C@@H]2CNC[C@@H]21` [Compound 192-2, N-((S)-1-(4′-chloro-[1,1′-biphenyl]-4-yl)-1,1-difluoro-3-((3aR,6aR)-hexahydropyrrolo[3,4-b]pyrrol-1(2H)-yl)-3-oxopropan-2-yl)-6-(cyclopentyloxy)naphthalene-2-sulfonamide], the concentration for half-maximal inhibition (IC50) lay within 10 to 30 µM.

Molecule `O=C([C@@H](NS(=O)(=O)c1ccc2cc(OC3CCCC3)ccc2c1)C(F)(F)c1ccc(-c2ccc(Cl)cc2)cc1)N1CC[C@@H]2CNC[C@@H]21` [Compound 192-3, N-((R)-1-(4′-chloro-[1,1′-biphenyl]-4-yl)-1,1-difluoro-3-((3aR,6aR)-hexahydropyrrolo[3,4-b]pyrrol-1(2H)-yl)-3-oxopropan-2-yl)-6-(cyclopentyloxy)naphthalene-2-sulfonamide] returned an IC50 of under 1 µM.

`O=C([C@H](NS(=O)(=O)c1ccc2cc(OC3CCCC3)ccc2c1)C(F)(F)c1ccc(-c2ccc(Cl)cc2)cc1)N1CC[C@H]2CNC[C@H]21` [Compound 192-4, N-((S)-1-(4′-chloro-[1,1′-biphenyl]-4-yl)-1,1-difluoro-3-((3aS,6aS)-hexahydropyrrolo[3,4-b]pyrrol-1(2H)-yl)-3-oxopropan-2-yl)-6-(cyclopentyloxy)naphthalene-2-sulfonamide] gave an IC50 of 30 to 100 µM.

In turn, `C=C(c1ccc(C(F)(F)[C@H](NS(=O)(=O)c2ccc(OCC3CCCCC3)cc2)C(=O)N2CCC(N)CC2)cc1)C(F)(F)F` [Compound 193-1, (R)-N-(3-(4-aminopiperidin-1-yl)-1,1-difluoro-3-oxo-1-(4-(3,3,3-trifluoroprop-1-en-2-yl)phenyl)propan-2-yl)-4-(cyclohexylmethoxy)benzenesulfonamide] came in with an IC50 of under 1 µM.

In turn, `C=C(c1ccc(C(F)(F)[C@@H](NS(=O)(=O)c2ccc(OCC3CCCCC3)cc2)C(=O)N2CCC(N)CC2)cc1)C(F)(F)F` [Compound 193-2, (S)-N-(3-(4-aminopiperidin-1-yl)-1,1-difluoro-3-oxo-1-(4-(3,3,3-trifluoroprop-1-en-2-yl)phenyl)propan-2-yl)-4-(cyclohexylmethoxy)benzenesulfonamide] registered an IC50 of 30 to 100 µM.

`NC1CC2CCC(C1)N2C(=O)[C@@H](NS(=O)(=O)c1ccc(OCC2CCCCC2)cc1)C(F)(F)c1ccc(Cl)s1` (stereo partly drawn) [Compound 194-1, N-((2R)-3-(3-amino-8-azabicyclo[3.2.1]octan-8-yl)-1-(5-chlorothiophen-2-yl)-1,1-difluoro-3-oxopropan-2-yl)-4-(cyclohexylmethoxy)benzenesulfonamide]: the IC50 was in the range of 1 to 10 µM.

Regarding `NC1CC2CCC(C1)N2C(=O)[C@H](NS(=O)(=O)c1ccc(OCC2CCCCC2)cc1)C(F)(F)c1ccc(Cl)s1` (stereo partly drawn) [Compound 194-2, N-((2S)-3-(3-amino-8-azabicyclo[3.2.1]octan-8-yl)-1-(5-chlorothiophen-2-yl)-1,1-difluoro-3-oxopropan-2-yl)-4-(cyclohexylmethoxy)benzenesulfonamide], the half-inhibitory concentration (IC50) is 30 to 100 µM.

Molecule `O=C([C@@H](NS(=O)(=O)c1ccc(OCC2CCCCC2)cc1)C(F)(F)c1ccc(-c2ccc(Cl)cc2)cc1)N1CC[C@H]2CNC[C@H]21` [Compound 195-1, N-((R)-1-(4′-chloro-[1,1′-biphenyl]-4-yl)-1,1-difluoro-3-((3aS,6aS)-hexahydropyrrolo[3,4-b]pyrrol-1(2H)-yl)-3-oxopropan-2-yl)-4-(cyclohexylmethoxy)benzenesulfonamide] showed a 50% inhibitory concentration (IC50) of 1 to 10 µM.

For the molecule `O=C([C@H](NS(=O)(=O)c1ccc(OCC2CCCCC2)cc1)C(F)(F)c1ccc(-c2ccc(Cl)cc2)cc1)N1CC[C@@H]2CNC[C@@H]21` [Compound 195-2, N-((S)-1-(4′-chloro-[1,1′-biphenyl]-4-yl)-1,1-difluoro-3-((3aR,6aR)-hexahydropyrrolo[3,4-b]pyrrol-1(2H)-yl)-3-oxopropan-2-yl)-4-(cyclohexylmethoxy)benzenesulfonamide], the IC50 was in the range of 30 to 100 µM.

The molecule `O=C([C@@H](NS(=O)(=O)c1ccc(OCC2CCCCC2)cc1)C(F)(F)c1ccc(-c2ccc(Cl)cc2)cc1)N1CC[C@@H]2CNC[C@@H]21` [Compound 195-3, N-((R)-1-(4′-chloro-[1,1′-biphenyl]-4-yl)-1,1-difluoro-3-((3aR,6aR)-hexahydropyrrolo[3,4-b]pyrrol-1(2H)-yl)-3-oxopropan-2-yl)-4-(cyclohexylmethoxy)benzenesulfonamide] returned an IC50 of 1 to 10 µM.

The values are drawn from patent US20190322676A1, “CERAMIDE GALACTOSYLTRANSFERASE INHIBITORS FOR THE TREATMENT OF DISEASE” (BioMarin Pharmaceutical Inc., priority 2016, published 2019).
